From patent publication US20060148804A1, “Pde4 inhibitors for the treatment of neoplasms of lymphoid cells” (priority 2003, published 2006)
Blank lines part the entries; values can stand above or below the compound they belong to.

Experiments:
NB4 cells [1] = experiment: Intracellular cAMP and cAMP-dependent protein kinase (PKA) amounts in NB4 cells; format: cell-based; conditions: versus basal conditions
Excerpt: (§1) In NB4 cells, PICLAMILAST accelerates the process of morphological granulocytic maturation and enhances the ATRA-dependent induction of specific differentiation markers such as NBT-reductase (NBTR) as well as CD11b. PICLAMILAST not only enhances, but also accelerates the process of granulocytic maturation set in motion by ATRA in acute myelogenous leukemia cells, reducing the time necessary to expose cells to ATRA to obtain maximal differentiation. […] PICLAMILAST exerts differential effects on a number of transcriptional factors involved in the process of leukemic cell maturation triggered by ATRA. […] The PICLAMILAST dependent enhancement of the ATRA-dependent induction of NBT-R is suppressed by the cAMP antagonist, Rp-8Br-cAMP, and the specific PKA inhibitor H-89. […] This phenomenon is more evident when cells are treated with combinations of ATRA and the PDE4 inhibitor. […] This altogether could represent a clinically relevant finding as it may represent a useful strategy to increase the therapeutic index of ATRA by decreasing its local and systemic toxicity.

NB4 blasts = experiment: ATRA induced granulocytic maturation and growth inhibition of NB4 blasts; format: cell-based; conditions: for PICLAMILAST dependent enhancement of the ATRA-dependent induction of NBT-R: added to PICLAMILAST and ATRA
Excerpt: as §1

NB4 cells [2] = experiment: Gene expression in NB4 / myeloid cells; format: cell-based
Excerpt: as §1

HL-60 blasts = experiment: ATRA induced granulocytic maturation and growth inhibition of HL-60 blasts; format: cell-based; conditions: together with ATRA
U937 blasts = experiment: ATRA induced granulocytic maturation and growth inhibition of U937 blasts; format: cell-based; conditions: together with ATRA
[3] = test system: retinoic acid receptor, RARalpha; experiment: Ligand-dependent transcriptional activity and phosphorylation of RARalpha; format: cell-based
Excerpt: as §1

cEBPalpha = experiment: Amounts of cEBPalpha in leukemic cell maturation triggered by ATRA; format: cell-based; conditions: in combination with the retinoid
Excerpt: as §1

STAT1 = experiment: Amounts and tyrosine phosphorylation of STAT1; format: cell-based; conditions: in combination with the retinoid
Excerpt: as §1

cEBPepsilon = experiment: Upregulation of cEBPepsilon; format: cell-based; conditions: in combination with the retinoid
Excerpt: as §1

[4] = test system: CREBP transcriptional factor; experiment: Phosphorylation state of CREBP in NB4 cells; format: cell-based
Excerpt: as §1

[5] = test system: chronic lymphocytic leukemia (CLL) B-lymphocytes; conditions: in vitro; cited from earlier work

Structure (SMILES): CC1=C(/C=C/C(C)=C/C=C/C(C)=C/C(=O)O)C(C)(C)CCC1 [ATRA, all trans retinoic acid]
amounts of cAMP-dependent protein kinase (PKA) (NB4 cells [1]): Neither basal nor PICLAMILAST-induced levels of cAMP and PKA are modulated
amounts of intracellular cAMP (NB4 cells [1]): Neither basal nor PICLAMILAST-induced levels of cAMP and PKA are modulated

Structure (SMILES): O=S(=O)(NCCNC/C=C/c1ccc(Br)cc1)c1cccc2cnccc12 [H-89]
PICLAMILAST dependent enhancement of the ATRA-dependent induction of NBT-R (NB4 blasts): suppressed
ATRA-dependent genes whose expression is super-induced by the PDE4 inhibitor (NB4 cells [2]; added to PICLAMILAST and ATRA): does not have the same effect on all

ATRA-dependent induction of NBT-reductase (NBTR) (NB4 blasts; NB4 cells, with ATRA): enhances
PKA-dependent phosphorylation of RARalpha [3]: activated
ligand-dependent transcriptional activity of RARalpha ([3]; in combination with the retinoid): enhances
Structure (SMILES): COc1ccc(C(=O)Nc2c(Cl)cncc2Cl)cc1OC1CCCC1 [PICLAMILAST, N-(3,5-dichloropyrid-4-yl)-3-cyclopentyloxy-4-methoxybenzamide]
growth inhibitory and cyto-differentiating activities of all trans retinoic acid (ATRA) (NB4 blasts; NB4 blasts, together with ATRA): potentiates
process of morphological granulocytic maturation (NB4 blasts; NB4 cells): accelerates
ATRA-dependent induction of CD11b (NB4 blasts; NB4 cells, with ATRA): enhances
time necessary to expose cells to ATRA to obtain maximal differentiation (NB4 blasts; acute myelogenous leukemia cells): reducing
growth inhibitory effect of the retinoid (NB4 blasts; acute myelogenous leukemia cells, with ATRA): increases the growth inhibitory effect of the retinoid in an additive fashion
growth inhibitory and cyto-differentiating activities of all trans retinoic acid (ATRA) (HL-60 blasts): potentiates
growth inhibitory and cyto-differentiating activities of all trans retinoic acid (ATRA) (U937 blasts): potentiates
amounts of cAMP-dependent protein kinase (PKA) (NB4 cells [1]): significant increase
amounts of intracellular cAMP (NB4 cells [1]): significant increase
amounts of cEBPalpha (cEBPalpha): causes an increase
amounts and activation state (tyrosine phosphorylation) of STAT1 (STAT1): causes an increase
upregulation of cEBPepsilon (cEBPepsilon): no significant effect
phosphorylation state of the cAMP dependent CREBP transcriptional factor [4]: down-regulatory action
expression of cAMP- and CREBP-dependent genes, such as vinculin (NB4 cells [2]; NB4 cells): does not modulate
expression of numerous ATRA-dependent genes, including cathepsin D and syaloadhesin (NB4 cells [2]; with ATRA): enhancing action

Structure (SMILES): Nc1ncnc2c1nc(Br)n2C1OC2COP(O)(=S)OC2C1O (stereo not drawn) [Rp-8Br-cAMP]
PICLAMILAST dependent enhancement of the ATRA-dependent induction of NBT-R (NB4 blasts): suppressed

Structure (SMILES): Cn1c(=O)c2[nH]cnc2n(C)c1=O [Theophylline]
apoptosis in CLL B-lymphocytes [5]: induce apoptosis
